From the supplement of paper PMC11997997

Assays:
[1] = system: murine bone marrow-derived macrophages; experiment: area under cytotoxicity dose-response curve (AUC (% cytotoxicity x dose, relative)); higher = more cytotoxic; details: duration: 6 days; dose range: 0.13-80 uM, 8 points
How it was run: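 An 8-point, 2.5-fold dilution series (final 80–0.13 μM) was applied for 6 days at 37 °C in 5% CO2 to primary murine bone marrow-derived macrophages plated in opaque 384-well plates. Promega's CellTiter-Glo luminescence assay measured viability, and percent cytotoxicity was normalised against vehicle and positive control wells. The area under the dose–response curve, worked out in GraphPad Prism version 10, is the reported cytotoxicity measure.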

[2] = system: Mycobacterium tuberculosis CDC1551 (intracellular, in murine BMDM); experiment: area under intracellular growth-inhibition dose-response curve (AUC (% inhibition x dose, relative)); higher = more potent; details: duration: 6 days; dose range: 0.13-80 uM, 8 points
How it was run: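 Each value is an area under the growth-inhibition dose–response curve, calculated with GraphPad Prism. Infected primary murine bone marrow-derived macrophages, carrying luciferase-expressing M. tuberculosis CDC1551 at multiplicity of infection 1, were treated for 6 days with an 8-dose, 2.5-fold series (final 80–0.13 μM) in 384-well opaque plates. Readout was by Bright-Glo luciferin assay, normalised to a reference drug control and the lowest-concentration wells.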

O=C(NNC(=O)c1ccc(-c2ccc([N+](=O)[O-])cc2)o1)c1ccncc1
area under cytotoxicity dose-response curve [1]: 40.4 | area under intracellular growth-inhibition dose-response curve [2]: 264

CCOC(=O)C(CC)(CC)/C(C)=N/NC(=O)CC#N
area under cytotoxicity dose-response curve [1]: 20 | area under intracellular growth-inhibition dose-response curve [2]: 19.5

Cc1ccc(CNC(=O)c2ccc(Br)o2)cc1
area under cytotoxicity dose-response curve [1]: < 0 | area under intracellular growth-inhibition dose-response curve [2]: 267

COc1ccc(C(C)NC(=O)c2ccccc2)cc1 (stereo not drawn)
area under cytotoxicity dose-response curve [1]: 237 | area under intracellular growth-inhibition dose-response curve [2]: 222

Cc1ccc(S(=O)(=O)Nc2c(C)n(C)n(-c3ccccc3)c2=O)cc1C(=O)OC(C)C(=O)c1ccccc1 (stereo not drawn)
area under cytotoxicity dose-response curve [1]: 6.34 | area under intracellular growth-inhibition dose-response curve [2]: 17

CN1/C(=C/C(=O)c2cccs2)Sc2ccccc21
area under cytotoxicity dose-response curve [1]: 48 | area under intracellular growth-inhibition dose-response curve [2]: 139

COc1ccc(N2C(C)=CC(=Cc3sc4ccccc4[n+]3C)C=C2C)cc1.[I-]
area under cytotoxicity dose-response curve [1]: 87.2 | area under intracellular growth-inhibition dose-response curve [2]: < 0

CCOc1ccc(OCCCC(=O)NNC(=O)c2ccncc2)cc1
area under cytotoxicity dose-response curve [1]: < 0 | area under intracellular growth-inhibition dose-response curve [2]: 272

CCOC(=O)/C=C/C(=O)Nc1ccc(-c2nnc3n2CCCCC3)cc1
area under cytotoxicity dose-response curve [1]: 34.8 | area under intracellular growth-inhibition dose-response curve [2]: 131

O=C(/C=C/c1ccccc1Cl)NCc1ccco1
area under cytotoxicity dose-response curve [1]: 79.7 | area under intracellular growth-inhibition dose-response curve [2]: 174

CNC(=S)Nc1ccc(-c2nc3ccc(C)cc3s2)cc1
area under cytotoxicity dose-response curve [1]: 5.79 | area under intracellular growth-inhibition dose-response curve [2]: 262

Cc1nnc(NS(=O)(=O)c2ccc(N)cc2)s1
area under cytotoxicity dose-response curve [1]: 29.3 | area under intracellular growth-inhibition dose-response curve [2]: 121

COc1cc(/C=N/NC(=O)c2ccncc2)ccc1OCC(=O)Nc1ccccc1
area under cytotoxicity dose-response curve [1]: < 0 | area under intracellular growth-inhibition dose-response curve [2]: 232

CCOc1ncnc2c1oc1nc(CC(C)C)c3c(c12)CC(C)(C)OC3
area under cytotoxicity dose-response curve [1]: 63.6 | area under intracellular growth-inhibition dose-response curve [2]: 115

CN(C(=O)CSc1ncnc2sc3c(c12)CCC3)C1CCS(=O)(=O)C1 (stereo not drawn)
area under cytotoxicity dose-response curve [1]: 4.88 | area under intracellular growth-inhibition dose-response curve [2]: 60.2

Cc1cc(C)cc(NC(=O)NC2CCCCCCC2)c1
area under cytotoxicity dose-response curve [1]: 109 | area under intracellular growth-inhibition dose-response curve [2]: 198

O=[N+]([O-])c1ccccc1-c1cc(-c2ccccc2)cc(-c2ccccc2)[n+]1Cc1ccccc1Cl.[O-][Cl+3]([O-])([O-])[O-]
area under cytotoxicity dose-response curve [1]: < 0 | area under intracellular growth-inhibition dose-response curve [2]: 144

N#CCc1ccc(NC(=O)/C=C/c2ccc([N+](=O)[O-])o2)cc1
area under cytotoxicity dose-response curve [1]: 124 | area under intracellular growth-inhibition dose-response curve [2]: 35

NC(=S)N/N=C/c1c[nH]c2ccccc12
area under cytotoxicity dose-response curve [1]: 35.6 | area under intracellular growth-inhibition dose-response curve [2]: 231

Cc1ccc(C2=NCCn3c2c2ccc([N+](=O)[O-])cc2[n+]3[O-])cc1
area under cytotoxicity dose-response curve [1]: 96.8 | area under intracellular growth-inhibition dose-response curve [2]: 20.7

CCC(=O)NC(=S)Nc1ccc(NC(=O)c2ccc(Br)o2)cc1
area under cytotoxicity dose-response curve [1]: 58.2 | area under intracellular growth-inhibition dose-response curve [2]: 211

Cc1ccnc2c1ccc1cccnc12
area under cytotoxicity dose-response curve [1]: 208 | area under intracellular growth-inhibition dose-response curve [2]: 149

O=C(NC1CCCC1)C1CC1c1ccccc1 (stereo not drawn)
area under cytotoxicity dose-response curve [1]: < 0 | area under intracellular growth-inhibition dose-response curve [2]: 135

O=C(N/N=C/c1cccc2nccnc12)c1ccncc1
area under cytotoxicity dose-response curve [1]: 36.1 | area under intracellular growth-inhibition dose-response curve [2]: 271

CCOC(=O)Nc1ccc(C(=O)Oc2ccccc2)c(O)c1
area under cytotoxicity dose-response curve [1]: 63.8 | area under intracellular growth-inhibition dose-response curve [2]: 31.9

CNc1nc(SC)nc2ccsc12
area under cytotoxicity dose-response curve [1]: 11.7 | area under intracellular growth-inhibition dose-response curve [2]: 221

COc1ccc(/C=C/C(=O)c2ccc([N+](=O)[O-])o2)cc1
area under cytotoxicity dose-response curve [1]: 71.5 | area under intracellular growth-inhibition dose-response curve [2]: 162

Cl.c1ccc(CN2CCC3(CCCc4ccccc43)CC2)cc1
area under cytotoxicity dose-response curve [1]: 45.5 | area under intracellular growth-inhibition dose-response curve [2]: 160

O=C(CC12CC3CC(CC(C3)C1)C2)N1CCCC1
area under cytotoxicity dose-response curve [1]: 75.6 | area under intracellular growth-inhibition dose-response curve [2]: 216

COc1ccc(/C=N/NC(=O)c2ccncc2)cc1Cn1nc([N+](=O)[O-])c(Br)c1C
area under cytotoxicity dose-response curve [1]: < 0 | area under intracellular growth-inhibition dose-response curve [2]: 273

O=C(CSc1cccc[n+]1[O-])c1cc(Cl)ccc1Cl
area under cytotoxicity dose-response curve [1]: 47.3 | area under intracellular growth-inhibition dose-response curve [2]: 127

COc1cc(C(C)=NNC(=O)c2ccncc2)ccc1O
area under cytotoxicity dose-response curve [1]: 47.1 | area under intracellular growth-inhibition dose-response curve [2]: 265

CCCCC(=O)NCc1ccc(Cl)cc1
area under cytotoxicity dose-response curve [1]: 27.4 | area under intracellular growth-inhibition dose-response curve [2]: 197

CN(C)[C@@H]1C(=O)C(C(N)=O)=C(O)[C@@]2(O)C(=O)C3=C(O)c4c(O)ccc(Cl)c4[C@@H](O)[C@H]3C[C@@H]12.Cl
area under cytotoxicity dose-response curve [1]: < 0 | area under intracellular growth-inhibition dose-response curve [2]: 253

COc1cccc(/C=N/NC(N)=S)c1OS(=O)(=O)c1ccccc1
area under cytotoxicity dose-response curve [1]: 94.4 | area under intracellular growth-inhibition dose-response curve [2]: 237

CC1CCC(C(C)C)C(OC(=O)C[n+]2c(-c3ccc(Br)cc3)n(C)c3ccccc32)C1.[Cl-] (stereo not drawn)
area under cytotoxicity dose-response curve [1]: 82.2 | area under intracellular growth-inhibition dose-response curve [2]: 192

O=C(CSc1cccc[n+]1[O-])Nc1ccccc1Oc1ccccc1
area under cytotoxicity dose-response curve [1]: 53.2 | area under intracellular growth-inhibition dose-response curve [2]: 39.4

COc1cc(OC)c(/C=N/NC(=O)c2ccncc2)cc1Br
area under cytotoxicity dose-response curve [1]: 98 | area under intracellular growth-inhibition dose-response curve [2]: 249

Cc1nc(SCC(=O)NCc2ccc3c(c2)OCO3)nc(C)c1C
area under cytotoxicity dose-response curve [1]: < 0 | area under intracellular growth-inhibition dose-response curve [2]: 54.6

FC(F)(F)c1nnc2ccc(Cl)nn12
area under cytotoxicity dose-response curve [1]: 62.7 | area under intracellular growth-inhibition dose-response curve [2]: 36.2

Cc1cc2oc(=O)cc(-c3ccccc3)c2c(C)c1-c1ccc(C#N)cc1
area under cytotoxicity dose-response curve [1]: 110 | area under intracellular growth-inhibition dose-response curve [2]: 272

CNc1nc(SC)nc2ccccc12
area under cytotoxicity dose-response curve [1]: 77.9 | area under intracellular growth-inhibition dose-response curve [2]: 242

Cc1nnc(SCC2=C(C(=O)O)N3C(=O)C(NC(=O)Cn4nc(C(F)F)cc4C)C3SC2)s1 (stereo not drawn)
area under cytotoxicity dose-response curve [1]: < 0 | area under intracellular growth-inhibition dose-response curve [2]: 215

CC1CCN(C(=O)C2CCN(c3ncnc4c3nc3n4CCCCC3)CC2)CC1
area under cytotoxicity dose-response curve [1]: 35.4 | area under intracellular growth-inhibition dose-response curve [2]: 176

Cc1cc(C)n2nc3nc4c(cc3c2n1)CCCC4
area under cytotoxicity dose-response curve [1]: < 0 | area under intracellular growth-inhibition dose-response curve [2]: 152

O=C1/C(=C/c2cccs2)CCC1C1CCCC1 (stereo not drawn)
area under cytotoxicity dose-response curve [1]: < 0 | area under intracellular growth-inhibition dose-response curve [2]: 132

O=C(CCN1C(=O)S/C(=C/c2ccccc2)C1=O)Nc1ccc(C(=O)O)c(O)c1
area under cytotoxicity dose-response curve [1]: 156 | area under intracellular growth-inhibition dose-response curve [2]: 117

O=C(/C=C/c1cccs1)NCc1cccs1
area under cytotoxicity dose-response curve [1]: 34.6 | area under intracellular growth-inhibition dose-response curve [2]: 240

O=C(CCC1CCCC1)NCc1cccs1
area under cytotoxicity dose-response curve [1]: 42.7 | area under intracellular growth-inhibition dose-response curve [2]: 198
